Laboratory results reported in publication PMC10590383, “Repurposing conformational changes in ANL superfamily enzymes to rapidly generate biosensors for organic and amino acids” (Nature Communications, 2023).

Assays:
Format in all cases: biochemical
[1] = Dose–response curve of purified […]s with tyrosine
Procedure: (§1) Fig. 4 Engineering ligand specificity of GrsA-PheA for generating […]s. a The selectivity-conferring code of Phe and Leu A domains. b–f Dose–response curve of purified […]s with increasing concentrations of ligands in 100 mM Tris-HCl buffer (pH=7.5). All data shown are means ± S.D. (n = 3 biologically independent samples). g A series of […] reactions was tested to show the […]’s specificity with 20 proteinogenic amino acids. The values on the heatmap represent the ΔF/F0 value normalized to each […]’s maximal ΔF/F0 value ((ΔF/F0)/maximal ΔF/F0). The concentrations of 20 amino acids were 100 μM. The color indicates the average value of three independent biological replicates after 15 min. All data shown are means ± S.D. (n = 3 biologically independent samples). Source data are provided as a Source data file.
(§2) The study conducted dose–response curve, substrate specificity, and fluorescent spectrum analyses in 100-mM Tris buffer (pH = 7.5), while pH stability experiments were performed in 100-mM Tris buffer at three different pH values (6.5, 7.5, and 8.5) at room temperature. […] protein at a concentration of 0.75 μM, various small molecule concentrations, 1 mM ATP, and 2.5 mM MgCl2 were used in the experiments. Fluorescent signals were detected using a Microplate Reader (Synergy H4, Bio Tek) at an excitation/emission wavelength of 460 nm/510 nm or 480 nm/510 nm. The dose-response curve was determined immediately after the addition of the analyte. The total duration of the measurement was 15 min, with readings taken at one-minute intervals. The dose-response curve was plotted using the fluorescence values obtained after achieving stability in the fluorescence signal. The dose-response curves were fitted using the logistic model LOGISTIC5 available in Origin 2021, which could provide a more adequate fit to asymmetric dose-response data[62],[63]. Excitation spectra were scanned from 300 to 540 nm with a step size of 5 nm, and the emission wavelength was set to 560 nm. Emission spectra were scanned from 470 to 700 nm with a step size of 5 nm, and the excitation wavelength was set to 450 nm. The thermal stability of […] was analyzed using the UNcle multifunctional protein stability analysis system. Measurements were performed in 20 mM MOPS buffer with 2 mM DTT at a sample concentration of 1 mg/mL. Absolute fluorescence quantum yields were measured using an absolute photoluminescence quantum yield spectrometer (FS5, Edinburgh).

[2] = Substrate (ligand) specificity of […]s; settings: for AVE of Repeat 1-3, sensor signal with ligand (Supplementary Fig. 7 c): 1 mM ligand, Control AVE 12117.3; for fluorescence response of GECFINDER to each substrate, AVE of 3 repeats: Supplementary Fig. 3 c, substrate specificity
Procedure: as §1
Ligand specificity is an important biosensors feature. Generally, the NRPS A domains have high specificity for their substrates because they are the first “gatekeeper” of NRPSs and ensure that the correct monomers are activated and thioesterified[32],[33]. Therefore, we speculated that this property would be inherited by our […]s because the ligand-binding pockets were unchanged during the […] creation process. Twenty proteinogenic amino acids were used to test the ligand specificity of […]s. […] We also investigated the dependence of […]s on Mg^2+ and ATP (Supplementary Fig. 4). […] This phenomenon corroborates with the distinct conformational changes observed in Hinge A of Nt4CL2 (Mg^2++ATP) (PDB ID: 5BSM) and Nt4CL2 (Coumaroyl-AMP) (PDB ID: 5BST) reported in the literature (Supplementary Fig. 4k), where the direction of motion in hinge A differs. […] During the determination of quantum yield, we observed that the absolute quantum yield of the […] variants ranged from 0.3 to 0.6 upon addition of the respective substrates, which show no significant difference with that reported in literature. The specific values are provided in Supplementary Table 2.
as §2

[3] = Dose–response curve of purified GECFINDERs with leucine
Procedure: as §1, §2

N[C@@H](Cc1ccc(O)cc1)C(=O)O [Tyr]
AVE, dose-response Fig. 4 b ([1]; substrate Tyr 0.5 μM): 7.517e-17 | AVE, dose-response Fig. 4 b ([1]; substrate Tyr 1 μM): 0.02259 | AVE, dose-response Fig. 4 b ([1]; substrate Tyr 5 μM): 0.05606 | AVE, dose-response Fig. 4 b ([1]; substrate Tyr 10 μM): 0.0659 | AVE, dose-response Fig. 4 b ([1]; substrate Tyr 20 μM): 0.09543 | AVE, dose-response Fig. 4 b ([1]; substrate Tyr 50 μM): 0.2237 | AVE, dose-response Fig. 4 b ([1]; substrate Tyr 100 μM): 0.3812 | AVE, dose-response Fig. 4 b ([1]; substrate Tyr 200 μM): 0.5926 | AVE, dose-response Fig. 4 b ([1]; substrate Tyr 250 μM): 0.6977 | AVE, dose-response Fig. 4 b ([1]; substrate Tyr 500 μM): 1.046 | AVE, dose-response Fig. 4 b ([1]; substrate Tyr 750 μM): 1.209 | AVE, dose-response Fig. 4 b ([1]; substrate Tyr 1000 μM): 1.242 | AVE, dose-response Fig. 4 e ([1]; substrate Tyr 0.1 μM): 0 | AVE, dose-response Fig. 4 e ([1]; substrate Tyr 0.2 μM): 0.01578 | AVE, dose-response Fig. 4 e ([1]; substrate Tyr 1 μM): 0.04154 | AVE, dose-response Fig. 4 e ([1]; substrate Tyr 2 μM): 0.05025 | AVE, dose-response Fig. 4 e ([1]; substrate Tyr 10 μM): 0.1198 | AVE, dose-response Fig. 4 e ([1]; substrate Tyr 20 μM): 0.1707 | AVE, dose-response Fig. 4 e ([1]; substrate Tyr 100 μM): 0.4124 | AVE, dose-response Fig. 4 e ([1]; substrate Tyr 200 μM): 0.5306 | AVE, dose-response Fig. 4 e ([1]; substrate Tyr 500 μM): 0.6788 | AVE, dose-response Fig. 4 e ([1]; substrate Tyr 1000 μM): 0.7749 | AVE, dose-response Fig. 4 e ([1]; substrate Tyr 1500 μM): 0.7754 | AVE, dose-response Fig. 4 e ([1]; substrate Tyr 2000 μM): 0.7447 | AVE of Repeat 1-3, sensor signal with ligand (Supplementary Fig. 7 c) [2]: 11224.3 | fluorescence response of GECFINDER to each substrate, AVE of 3 repeats [2]: -0.01776

CC(C)C[C@H](N)C(=O)O [Leu]
AVE, dose-response Fig. 4 b ([3]; substrate Leu 0.001 μM): -7.112e-17 | AVE, dose-response Fig. 4 b ([3]; substrate Leu 0.005 μM): 0.003877 | AVE, dose-response Fig. 4 b ([3]; substrate Leu 0.01 μM): 0.02311 | AVE, dose-response Fig. 4 b ([3]; substrate Leu 0.05 μM): 0.04234 | AVE, dose-response Fig. 4 b ([3]; substrate Leu 0.1 μM): 0.03637 | AVE, dose-response Fig. 4 b ([3]; substrate Leu 0.5 μM): 0.02815 | AVE, dose-response Fig. 4 b ([3]; substrate Leu 1 μM): 0.02962 | AVE, dose-response Fig. 4 b ([3]; substrate Leu 5 μM): 0.0138 | AVE, dose-response Fig. 4 b ([3]; substrate Leu 10 μM): 0.1049 | AVE, dose-response Fig. 4 b ([3]; substrate Leu 25 μM): 0.1731 | AVE, dose-response Fig. 4 b ([3]; substrate Leu 50 μM): 0.2052 | AVE, dose-response Fig. 4 b ([3]; substrate Leu 100 μM): 0.2136 | AVE, dose-response Fig. 4 c ([3]; substrate Leu 0.5 μM): 6.794e-17 | AVE, dose-response Fig. 4 c ([3]; substrate Leu 1 μM): 0.0405 | AVE, dose-response Fig. 4 c ([3]; substrate Leu 2 μM): 0.06186 | AVE, dose-response Fig. 4 c ([3]; substrate Leu 5 μM): 0.1266 | AVE, dose-response Fig. 4 c ([3]; substrate Leu 10 μM): 0.1121 | AVE, dose-response Fig. 4 c ([3]; substrate Leu 20 μM): 0.1733 | AVE, dose-response Fig. 4 c ([3]; substrate Leu 50 μM): 0.2857 | AVE, dose-response Fig. 4 c ([3]; substrate Leu 100 μM): 0.4006 | AVE, dose-response Fig. 4 c ([3]; substrate Leu 200 μM): 0.5877 | AVE, dose-response Fig. 4 c ([3]; substrate Leu 500 μM): 0.7587 | AVE, dose-response Fig. 4 c ([3]; substrate Leu 750 μM): 0.8241 | AVE, dose-response Fig. 4 c ([3]; substrate Leu 1000 μM): 0.7953 | AVE, dose-response Fig. 4 d ([3]; substrate Leu 0.005 μM): -5.262e-17 | AVE, dose-response Fig. 4 d ([3]; substrate Leu 0.01 μM): 0.03426 | AVE, dose-response Fig. 4 d ([3]; substrate Leu 0.1 μM): 0.06576 | AVE, dose-response Fig. 4 d ([3]; substrate Leu 1 μM): 0.08826 | AVE, dose-response Fig. 4 d ([3]; substrate Leu 5 μM): 0.1792 | AVE, dose-response Fig. 4 d ([3]; substrate Leu 10 μM): 0.2348 | AVE, dose-response Fig. 4 d ([3]; substrate Leu 50 μM): 0.4576 | AVE, dose-response Fig. 4 d ([3]; substrate Leu 100 μM): 0.5636 | AVE, dose-response Fig. 4 d ([3]; substrate Leu 200 μM): 0.7427 | AVE, dose-response Fig. 4 d ([3]; substrate Leu 500 μM): 0.9952 | AVE, dose-response Fig. 4 d ([3]; substrate Leu 750 μM): 1.079 | AVE, dose-response Fig. 4 d ([3]; substrate Leu 1000 μM): 1.107 | fluorescence response of GECFINDER, AVE of 3 repeats ([3]; Supplementary Fig. 3 a, Leu 0.001 μM): 0 | fluorescence response of GECFINDER, AVE of 3 repeats ([3]; Supplementary Fig. 3 a, Leu 0.005 μM): 0.02218 | fluorescence response of GECFINDER, AVE of 3 repeats ([3]; Supplementary Fig. 3 a, Leu 0.01 μM): 0.03478 | fluorescence response of GECFINDER, AVE of 3 repeats ([3]; Supplementary Fig. 3 a, Leu 0.1 μM): 0.05423 | fluorescence response of GECFINDER, AVE of 3 repeats ([3]; Supplementary Fig. 3 a, Leu 1 μM): 0.08086 | fluorescence response of GECFINDER, AVE of 3 repeats ([3]; Supplementary Fig. 3 a, Leu 10 μM): 0.1724 | fluorescence response of GECFINDER, AVE of 3 repeats ([3]; Supplementary Fig. 3 a, Leu 50 μM): 0.3353 | fluorescence response of GECFINDER, AVE of 3 repeats ([3]; Supplementary Fig. 3 a, Leu 100 μM): 0.4583 | fluorescence response of GECFINDER, AVE of 3 repeats ([3]; Supplementary Fig. 3 a, Leu 500 μM): 0.754 | fluorescence response of GECFINDER, AVE of 3 repeats ([3]; Supplementary Fig. 3 a, Leu 1000 μM): 0.8727 | fluorescence response of GECFINDER, AVE of 3 repeats ([3]; Supplementary Fig. 3 a, Leu 5000 μM): 1.081 | fluorescence response of GECFINDER, AVE of 3 repeats ([3]; Supplementary Fig. 3 a, Leu 10000 μM): 0.9665 | fluorescence response of GECFINDER, AVE of 3 repeats ([3]; Supplementary Fig. 3 b, Leu 0.001 μM): 4.279e-17 | fluorescence response of GECFINDER, AVE of 3 repeats ([3]; Supplementary Fig. 3 b, Leu 0.005 μM): 0.01278 | fluorescence response of GECFINDER, AVE of 3 repeats ([3]; Supplementary Fig. 3 b, Leu 0.01 μM): 0.01795 | fluorescence response of GECFINDER, AVE of 3 repeats ([3]; Supplementary Fig. 3 b, Leu 0.1 μM): 0.04976 | fluorescence response of GECFINDER, AVE of 3 repeats ([3]; Supplementary Fig. 3 b, Leu 1 μM): 0.111 | fluorescence response of GECFINDER, AVE of 3 repeats ([3]; Supplementary Fig. 3 b, Leu 10 μM): 0.3678 | fluorescence response of GECFINDER, AVE of 3 repeats ([3]; Supplementary Fig. 3 b, Leu 50 μM): 0.7094 | fluorescence response of GECFINDER, AVE of 3 repeats ([3]; Supplementary Fig. 3 b, Leu 100 μM): 0.9192 | fluorescence response of GECFINDER, AVE of 3 repeats ([3]; Supplementary Fig. 3 b, Leu 500 μM): 1.615 | fluorescence response of GECFINDER, AVE of 3 repeats ([3]; Supplementary Fig. 3 b, Leu 1000 μM): 1.882 | fluorescence response of GECFINDER, AVE of 3 repeats ([3]; Supplementary Fig. 3 b, Leu 5000 μM): 2.296 | fluorescence response of GECFINDER, AVE of 3 repeats ([3]; Supplementary Fig. 3 b, Leu 10000 μM): 2.333 | AVE of Repeat 1-3, sensor signal with ligand (Supplementary Fig. 7 c) [2]: 12093 | fluorescence response of GECFINDER to each substrate, AVE of 3 repeats [2]: -0.01092
